Source: PubChem BioAssay AID1996
In brackets after ≈: the same amount, converted by molar mass.

Conditions: buffer; pH 7.4; 200.0 µM

Row | Compound | solubility kinetic [µg/mL]
1 | COC(=O)c1sc(S(=O)(=O)N2CCN(c3ccccc3F)CC2)c(C(=O)OC)c1C | 2.1 (≈ 4.6 µM)
2 | COC(=O)CSc1nc2sc3c(c2c(=O)[nH]1)CCC3 | 15.7 (≈ 53 µM)
3 | CCCN1C2CCCC1CC(NC(=S)Nc1ccc(OC)cc1)C2 (centres undefined) | > 52.1
4 | COc1cccc(NC(=O)Nc2cc(C)on2)c1 | > 37.1
5 | O=C1CCCN1c1ccc(S(=O)(=O)N2CCCCC2)cc1 | 22.5 (≈ 73 µM)
6 | CC1(C)C(C(=O)N2CCN(C(=O)c3ccccc3)CC2)C1(C)C | > 47.2
7 | O=[N+]([O-])c1ccc(NCc2ccc(Cl)cc2)c2ccncc12 | 0.3 (≈ 0.956 µM)
8 | NC1=NC2(CCCC2)N=C(Nc2ccccc2)N1 | > 36.5
9 | CCC(C)NC(=O)Cn1nc(Cc2ccncc2)c2ccccc2c1=O (centres undefined) | > 52.6
10 | C1CCCCCC(NCCN2CCNCC2)CCCCC1 | > 44.3
11 | CCN(C(=O)COC(=O)c1ccc(Cl)c(S(=O)(=O)N2CCCCC2)c1)C1CCS(=O)(=O)C1 (centres undefined) | 56.6 (≈ 112 µM)
12 | COc1ccc2[nH]cc(C(O)CN3CCN(c4ccccc4F)CC3)c2c1 (centres undefined) | > 55.4
13 | O=[N+]([O-])c1ccc(Sc2ccc(F)cc2)nc1 | 0.7 (≈ 2.8 µM)
14 | COc1ccccc1CCNC(=O)c1nccnc1C(=O)O | > 45.2
15 | Cc1nc2ccc(-c3nc4ccc(N)cc4[nH]3)cc2[nH]1 | 39.4 (≈ 150 µM)
16 | CCC(CC)C(=O)c1c[nH]c(C(=O)NCc2ccncc2)c1 | 44.2 (≈ 148 µM)
17 | Cc1cc(C)n2nc(SCCC(=O)NCc3ccccc3)nc2n1 | > 51.2
18 | O=C(COC(=O)c1ccc([N+](=O)[O-])s1)c1ccc[nH]1 | 22.5 (≈ 80.3 µM)
19 | CCN(c1ccccc1)S(=O)(=O)c1ccc(OC)c(NC(=O)c2cc(F)c(F)c(F)c2F)c1 | 0.7 (≈ 1.45 µM)
20 | CC(=O)c1ccc(N=C2SCCCN2C(=O)C2CCCC2)cc1 | 47.5 (≈ 144 µM)
21 | CC(=O)c1cccc(NC(=O)COc2cc(C)on2)c1 | > 41.1
22 | O=C(CNC(=O)c1ccc(Cl)cc1)N/N=C/c1cccnc1 | > 47.5
23 | N#Cc1ccccc1N/C=C/C(=O)c1ccc(Cl)cc1 | 0.8 (≈ 2.83 µM)
24 | CSc1ncccc1C(=O)OCC(=O)NCCc1ccccc1 | 27.9 (≈ 84.4 µM)

Row | Compound | solubility kinetic [µg/mL]
25 | S=C(NCc1ccco1)Nc1ccccc1Cl | > 40
26 | O=C(CSc1nc2ccc(Cl)cc2[nH]1)NC1CCCC1 | 9.3 (≈ 30 µM)
27 | CCn1c(=O)c(C(=O)NCc2ccccc2OC)c(O)c2ccccc21 | 0.7 (≈ 1.99 µM)
28 | CC(=O)c1cccc(N=Cc2c(O)ccc3ccccc23)c1 | 2.3 (≈ 7.95 µM)
29 | O=C(NCCN1CCOCC1)c1ccc(Cl)c([N+](=O)[O-])c1 | 41.4 (≈ 132 µM)
30 | C#CCn1cc(Cl)cc(C(=O)Nc2ccccc2)c1=O | 2.1 (≈ 7.32 µM)
31 | O=C(Nc1ccc(Cl)cn1)c1cccc(OCc2ccccc2)c1 | 0.7 (≈ 2.07 µM)
32 | O=C(O)/C(=N/NC(=O)c1ccc(Cl)cc1)c1ccccc1 | > 45.4
33 | CC(C)=CCN1CCN(CC#Cc2ccccc2)CC1CCO (centres undefined) | 37.9 (≈ 121 µM)
34 | CCOc1ccc(NC(=O)NCc2ccccn2)cc1 | 35.6 (≈ 131 µM)
35 | O=C(Nc1cccc(O)c1)c1ccc(S(=O)(=O)N2CCCCCC2)cc1 | 3.7 (≈ 9.88 µM)
36 | Cc1ccc(Cl)c(OCC(=O)OCC(=O)c2ccc[nH]2)c1 | 8.7 (≈ 28.3 µM)
37 | Cc1onc(C(=O)N2CCN(c3ccccc3)CC2)c1[N+](=O)[O-] | > 47.4
38 | CC(=O)Nc1cccc2c1C(=O)N(c1ccccc1OC(C)=O)C2=O | > 50.7
39 | O=C1c2ccccc2C(=O)N1CC(O)COc1ccccc1Cl (centres undefined) | 44 (≈ 133 µM)
40 | Nc1nc(-c2cc3c(cc2Cl)OCCO3)cs1 | 25.9 (≈ 96.4 µM)
41 | O=C(Nc1ccncc1Cl)c1ccncc1 | > 35
42 | CCc1noc(N)c1C(=O)Nc1ccc(Cl)cc1 | > 39.9
43 | CN1C(=O)/C(=C/c2coc3ccc(O)cc3c2=O)SC1=S | < 0.7
44 | O=C(CCc1ccccc1)Oc1ccccc1[N+](=O)[O-] | 5.2 (≈ 19.2 µM)
45 | COc1cc(C(=O)NC2CCCc3ccccc32)cc(OC)c1C (centres undefined) | < 0.7
46 | COC(=O)c1c(O)cc(=O)n2c1CCCCC2 | 33.3 (≈ 140 µM)
47 | CN(C)c1ccc(CNCc2cccnc2)cc1 | 33.3 (≈ 138 µM)
48 | O=S(N1CCc2ccccc21)C12CC3CC(CC(C3)C1)C2 (centres undefined) | 4.4 (≈ 14.6 µM)

Row | Compound | solubility kinetic [µg/mL]
49 | O=C(NC1(O)C(=O)c2ccccc2C1=O)c1ccc(C(F)(F)F)cc1 | > 52.4
50 | Cc1ccc(S(=O)(=O)N2CCC(C(=O)NCC3CC3)CC2)cc1 | 31.7 (≈ 94.2 µM)
51 | CC(=O)NCCc1nc2ccccc2n1CCOc1ccc(C)cc1 | > 50.6
52 | N#Cc1nc(-c2ccc(Cl)cc2)oc1NCC1CCCO1 (centres undefined) | 2.5 (≈ 8.23 µM)
53 | Cn1c(=S)[nH]c2sc3c(c2c1=O)CCC(C(C)(C)C)C3 (centres undefined) | < 0.3
54 | CC(C)C(NS(=O)(=O)c1cc(C(=O)O)ccc1Cl)C(=O)O (centres undefined) | 44.7 (≈ 133 µM)
55 | Cc1ccc(C(CC(=O)N2CCCC2)c2ccccc2)c(O)c1 (centres undefined) | > 46.4
56 | O=C(CNC(=O)c1ccccc1F)NCc1ccncc1 | > 43.1
57 | O=C(CNS(=O)(=O)c1cccs1)NCc1ccc(F)cc1 | > 49.3
58 | Cc1ccc(S(=O)(=O)NC(CC(=O)O)c2ccc(F)cc2)cc1 (centres undefined) | 34.8 (≈ 103 µM)
59 | CCOC(=O)c1c(C)[nH]c(C)c1C(=O)COC(=O)c1cccnc1OCC | > 56.2
60 | CCC(C)n1c(O)c(C=NCCc2ccccc2)c(=O)[nH]c1=S (centres undefined) | 5.1 (≈ 15.4 µM)
61 | O=C(O)CCC(=O)Nc1nc2ccc([N+](=O)[O-])cc2s1 | > 44.3
62 | O=C(NCc1ccco1)C1CCCN1C(=O)Nc1ccc(Cl)cc1 (centres undefined) | 3.4 (≈ 9.78 µM)
63 | CCN1CCN(CC2COc3ccccc3O2)CC1.Cl (centres undefined) | > 50.3
64 | O=C1NC(=O)C(Sc2ccccc2[N+](=O)[O-])C(=O)N1 | > 42.2
65 | CN(C)c1cc(-c2ccccc2)nc(-c2ccccc2)n1 | < 0.2
66 | O=C(NC1CCOc2ccccc21)C1CCCC1 (centres undefined) | > 36.8
67 | Cc1ccc(N2C(=O)c3ccccc3C2=O)cc1 | 2.7 (≈ 11.4 µM)
68 | CCCc1c(C)nc2c(OC)cccc2c1SCC(=O)O | 42.5 (≈ 139 µM)
69 | CCc1ccc(C(=O)NC(=S)NCc2cccnc2)cc1 | 39.9 (≈ 133 µM)
70 | O=C(Cc1c(F)cccc1Cl)OCC(=O)c1ccc[nH]1 | 26.1 (≈ 88.3 µM)
71 | COc1ccc(C(=O)OCC(=O)Nc2ccccc2)cc1[N+](=O)[O-] | 3 (≈ 9.08 µM)
72 | CN(C)S(=O)(=O)c1cccc(C(=O)Nc2ccc(C(=O)Nc3cccc(S(N)(=O)=O)c3)cc2)c1 | 9 (≈ 17.9 µM)

Row | Compound | solubility kinetic [µg/mL]
73 | O=C1CN(C(=O)c2ccc(Cl)nc2)c2ccccc2N1 | 33.3 (≈ 116 µM)
74 | Cc1ccc(-c2nc3ncccc3o2)cc1NC(=O)c1ccccc1 | 0.3 (≈ 0.911 µM)
75 | Cc1ccc(C)c(N2CCN(c3ccc([N+](=O)[O-])cn3)CC2)c1 | < 0.2
76 | O=C(Nc1ccc(N2CCCCCC2)cc1)c1ccc[nH]1 | 18.7 (≈ 66 µM)
77 | CC(C)CN(C(=O)CSc1nncn1C)C1CCS(=O)(=O)C1 (centres undefined) | > 52
78 | NC1=NC(=O)/C(=C/C=C/c2cccs2)S1 | 5.9 (≈ 25 µM)
79 | O=C(Nc1ccc(Cl)cc1)Nc1ccon1 | 26.7 (≈ 112 µM)
80 | Cc1cc(NC(=O)C(C)Oc2ccccc2)no1 (centres undefined) | > 36.9
81 | CCn1ccnc1CNC(=O)c1cc(COc2ccc(F)cc2F)on1 | 49.3 (≈ 136 µM)
82 | S=C1SCN(Cc2cccnc2)CN1Cc1ccccc1 | 38.9 (≈ 123 µM)
83 | O=C1CSC(=S)N1 | > 20
84 | CCOC(=O)N1CCc2c(sc(NC(=O)CN3CCOCC3)c2C#N)C1 | 48.5 (≈ 128 µM)
85 | Cc1ccsc1C(=O)N1CCN(c2ncccn2)CC1 | > 43.3
86 | CN1CCCN(c2ccc([N+](=O)[O-])nc2)CC1 | > 35.4
87 | COc1ccc(C(=O)NCc2ccc(C(=O)O)o2)cc1 | > 41.3
88 | O=C(NNC(=O)c1ccc2nc[nH]c2c1)c1ccccc1 | > 42
89 | Cc1cc(C)cc(NC(=O)c2cccc(N3C(=O)C4C5C=CC(C5)C4C3=O)c2)c1 (centres undefined) | < 0.4
90 | N#CCCN(C(=O)CSc1nc2ccccc2c(=O)[nH]1)c1ccc(F)cc1 | > 57.4
91 | CCN(CC)C(=O)c1cccc(C)c1 | 19.6 (≈ 102 µM)
92 | O=C(NCCCN1CCOCC1)c1ccc2ccccc2c1 | > 44.8
93 | CCc1nc2ccc(C(=O)Nc3ccc4c(c3)OCO4)cc2nc1CC | 1.6 (≈ 4.58 µM)
94 | O=C(COC(=O)CNC(=O)c1ccc(Cl)cc1)NC1CCCCCC1 | 18 (≈ 49.1 µM)
95 | Cc1onc(-c2ccccc2)c1C(=O)N1CCN(c2ncccn2)CC1 | > 52.4
96 | Cc1nnc(SCC(=O)Nc2cccc(N)c2)n1-c1ccccc1 | > 50.9

Row | Compound | solubility kinetic [µg/mL]
97 | CCN(CC)C(=O)c1ccc(COc2ccc(Cl)c(C)c2)o1 | 10.7 (≈ 33.3 µM)
98 | CCc1noc(C)c1C(=O)N1CCN(S(=O)(=O)c2ccc(Cl)s2)CC1 | 55.4 (≈ 137 µM)
99 | Cn1c(/C=C/c2ccccc2[N+](=O)[O-])nc2ccccc2c1=O | 0.6 (≈ 1.95 µM)
100 | O=C(CSc1ccc2c(c1)OCCO2)Nc1cccnc1 | > 45.4
101 | CCc1c(C)nc(SCC(=O)N2CCCCC2)[nH]c1=O | > 44.3
102 | C=CCN1C(=S)CC(c2ccccc2)=Nc2ccccc21 | 3.3 (≈ 11.3 µM)
103 | COc1ccccc1/C=C1\C(=O)NC(=S)N(c2ccccc2)C1=O | > 50.8
104 | c1cncc(CNc2nc(-c3cccnc3)nc3ccccc23)c1 | > 47
105 | N#C/C(=C\c1cccnc1)C(=O)Nc1ccc(C(=O)O)cc1 | > 44
106 | CC(=O)Nc1ccc(NC(=O)c2nccnc2C(=O)O)cn1 | > 45.2
107 | NS(=O)(=O)c1ccc(CCNC(=O)CN2CCCCC2)cc1 | 45.4 (≈ 140 µM)
108 | O=C(NCc1ccc(F)cc1)C1CC(=O)N(Cc2ccco2)C1 (centres undefined) | > 47.4
109 | COCCCNC(=O)c1ccccc1C(F)(F)F | > 39.2
110 | O=C(O)CC1(CC(=O)NCc2ccc(F)cc2)CCCCC1 | > 46.1
111 | Cc1ccc(S(=O)(=O)Nc2ccc(O)c3cccnc23)cc1 | 19 (≈ 60.4 µM)
112 | CC(C(=O)O)N1c2cccc3cccc(c23)S1(=O)=O (centres undefined) | > 41.6
113 | O=c1c2[nH]cnc2n(-c2ccccc2)c(=O)n1Cc1ccccc1 | 35.1 (≈ 110 µM)
114 | Cc1ccc(NC(=O)C(=O)c2c[nH]c3ccccc23)cc1 | < 0.3
115 | Cc1cccc(C)c1NC(=O)CNC(=O)c1ccc2c(c1)NC(=O)CS2 | 41 (≈ 111 µM)
116 | CC1CC(C)(C)NC(=S)N1CCCC(=O)NCc1ccccc1 (centres undefined) | > 50
117 | O=C(CN1CCCC1)N1CCN(c2ccccc2)CC1 | > 41
118 | O=C(Cc1c(F)cccc1Cl)Nc1nc2ccccc2s1 | 0.8 (≈ 2.49 µM)
119 | CC(=O)/C=C(\C)Nc1c(C)n(C)n(-c2ccccc2)c1=O | > 42.8
